Data set [1] is described as follows: Kinetic solubility of the compound in DPBS buffer at pH 7.4 incubated for 16 hrs under shaking condition by HPLC analysis. In kind it is physicochemical. Conditions: read-out: Kinetic_solubility.
The subject of the next data set is RD. Kind of data set: cells. The conditions noted are these: Homo sapiens, 72 h.
A short description of data set [2]: Metabolic stability in CD-1 mouse liver microsomes assessed as intrinsic clearance at 100 uM measured upto 60 mins in presence of NADPH by LC-MS/MS analysis. It is filed as ADME, Microsome. Conditions: mouse, microsomes, 1 h, 100 µM.
Another data set has as its system HT-1080. Kind of data set: cells. Conditions: Homo sapiens, HT-1080, 72 h.
A short description of data set [3]: Metabolic stability in CD-1 mouse liver microsomes assessed as half life at 100 uM measured upto 60 mins in presence of NADPH by LC-MS/MS analysis. It is filed as ADME, Microsome. The conditions noted are these: mouse, microsomes, 1 h, 100 µM. For orientation: Liver microsomes are a subcellular fraction often used to study metabolism.
The next data set has as its system MCF7. The data set is described as follows: cells. The conditions noted are these: Homo sapiens, MCF7, 72 h.
Another data set concerns GCT. Kind of data set: cells. Conditions: Homo sapiens, 72 h.
A short description of data set [4]: Metabolic stability in CD-1 mouse liver microsomes assessed as parent compound remaining at 100 uM measured after 60 mins in presence of NADPH by LC-MS/MS analysis. In kind it is ADME, Microsome. Conditions: read-out: Stability.
Data set [5] deals with Vimentin (Homo sapiens) (UniProt P08670). Kind of data set: Induction of Vimentin phosphorylation in human GCT cells at 1 uM incubated for 24 hrs by Western blot analysis. In kind it is cell-based. In general terms: In western blotting, separated proteins are transferred to a membrane and probed.
Vimentin (Homo sapiens), sequence (P08670 whole entry): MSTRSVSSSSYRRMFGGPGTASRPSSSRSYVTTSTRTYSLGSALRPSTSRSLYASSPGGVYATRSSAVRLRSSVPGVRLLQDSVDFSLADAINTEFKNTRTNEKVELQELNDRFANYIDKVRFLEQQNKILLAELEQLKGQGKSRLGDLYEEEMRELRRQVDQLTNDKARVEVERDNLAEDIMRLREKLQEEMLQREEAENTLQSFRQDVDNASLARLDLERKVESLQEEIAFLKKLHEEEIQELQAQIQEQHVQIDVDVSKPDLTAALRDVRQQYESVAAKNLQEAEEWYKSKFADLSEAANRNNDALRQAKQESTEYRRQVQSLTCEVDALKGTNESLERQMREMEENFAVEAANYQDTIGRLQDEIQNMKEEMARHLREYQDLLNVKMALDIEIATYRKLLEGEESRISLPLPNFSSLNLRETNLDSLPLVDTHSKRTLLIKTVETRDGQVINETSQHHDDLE
Data set [6] has the same target. Kind of data set: Induction of Vimentin phosphorylation in human HT-1080 cells at 1 uM incubated for 24 hrs by Western blot analysis. In kind it is cell-based.
Data set [7] has the same target. Kind of data set: Induction of Vimentin phosphorylation in human RD cells at 1 uM incubated for 24 hrs by Western blot analysis. In kind it is cell-based.
For data set [8] the target is unchanged. The data set is described as follows: Induction of Vimentin phosphorylation in human HT-1080 cells at 100 nM incubated for 24 hrs by Western blot analysis. It is filed as cell-based.
The target is the same in data set [9]. Kind of data set: Induction of Vimentin phosphorylation in human RD cells at 100 nM incubated for 24 hrs by Western blot analysis. In kind it is cell-based.
Data set [10] can be described thus: Tmax in mouse at 10 mg/kg, po by LC-MS/MS analysis. In kind it is ADME, organism-based. Conditions: in vivo.
Data set [11] can be described thus: Tlast in mouse at 10 mg/kg, po by LC-MS/MS analysis. In kind it is ADME, organism-based. Conditions: in vivo.
Data set [12] can be described thus: Oral bioavailability in mouse at 10 mg/kg by LC-MS/MS analysis. In kind it is ADME, organism-based. The conditions noted are these: in vivo.
The nature of data set [13]: AUC (0 to last) in mouse at 1 mg/kg, ip by LC-MS/MS analysis. It is filed as ADME, organism-based. Conditions: in vivo. More on the design: dose 1 mg/kg, route ip.
Data set [14] in a line: Half life in mouse at 10 mg/kg, po by LC-MS/MS analysis. It is filed as ADME, organism-based. The conditions noted are these: in vivo.
A short description of data set [15]: Cmax in mouse at 1 mg/kg, ip by LC-MS/MS analysis. It is filed as ADME, organism-based. More on the design: dose 1 mg/kg, route ip. Conditions: in vivo.
The nature of data set [16]: AUC (0 to infinity) in mouse at 10 mg/kg, po by LC-MS/MS analysis. More on the design: dose 10 mg/kg, route po. The conditions noted are these: in vivo. In kind it is ADME, organism-based.
Data set [17] is described as follows: Half life in mouse at 1 mg/kg, ip by LC-MS/MS analysis. It is filed as ADME, organism-based. The conditions noted are these: in vivo.
The nature of data set [18]: Tlast in mouse at 1 mg/kg, ip by LC-MS/MS analysis. In kind it is ADME, organism-based. The conditions noted are these: in vivo.
Data set [19] is described as follows: AUC (0 to infinity) in mouse at 1 mg/kg, ip by LC-MS/MS analysis. More on the design: dose 1 mg/kg, route ip. In kind it is ADME, organism-based. The conditions noted are these: in vivo.
A short description of data set [20]: Cmax in mouse at 10 mg/kg, po by LC-MS/MS analysis. In kind it is ADME, organism-based. More on the design: dose 10 mg/kg, route po. The conditions noted are these: in vivo.
The target in data set [21] is Vimentin (Homo sapiens) (UniProt P08670). Kind of data set: Induction of Vimentin phosphorylation in human GCT cells at 100 nM incubated for 24 hrs by Western blot analysis. It is filed as cell-based.
Data set [22] can be described thus: Tmax in mouse at 1 mg/kg, ip by LC-MS/MS analysis. Conditions: in vivo. In kind it is ADME, organism-based.
Data set [23] in a line: AUC (0 to last) in mouse at 10 mg/kg, po by LC-MS/MS analysis. It is filed as ADME, organism-based. More on the design: dose 10 mg/kg, route po. The conditions noted are these: in vivo.
A short description of data set [24]: AUC (0 to infinity) in mouse at 25 mg/kg, po by LC-MS/MS analysis. In kind it is ADME, organism-based. More on the design: dose 25 mg/kg, route po. The conditions noted are these: in vivo.
Data set [25] in a line: Tmax in mouse at 25 mg/kg, po by LC-MS/MS analysis. It is filed as ADME, organism-based. The conditions noted are these: in vivo.
Data set [26] in a line: Drug metabolism in mouse hepatocytes assessed as dealkylation by measuring M4 metabolite formation. It is filed as ADME, cell-based, Hepatocyte.
The nature of data set [27]: Drug metabolism in mouse hepatocytes assessed as oxygenation by measuring M5 metabolite formation. It is filed as ADME, cell-based, Hepatocyte.
The nature of data set [28]: Cmax in mouse at 25 mg/kg, po by LC-MS/MS analysis. Conditions: in vivo. It is filed as ADME, organism-based. More on the design: dose 25 mg/kg, route po.
Data set [29] can be described thus: Drug metabolism in mouse hepatocytes assessed as oxygenation by measuring M7 metabolite formation. It is filed as ADME, cell-based, Hepatocyte.
A short description of data set [30]: Drug metabolism in mouse hepatocytes assessed as dealkylation by measuring M1 metabolite formation. In kind it is ADME, cell-based, Hepatocyte.
Data set [31] is described as follows: AUC (0 to last) in mouse at 25 mg/kg, po by LC-MS/MS analysis. It is filed as ADME, organism-based. More on the design: dose 25 mg/kg, route po. The conditions noted are these: in vivo.
A short description of data set [32]: Half life in mouse at 25 mg/kg, po by LC-MS/MS analysis. The conditions noted are these: in vivo. It is filed as ADME, organism-based.
Data set [33] is described as follows: Drug metabolism in mouse hepatocytes assessed as oxygenation by measuring M6 metabolite formation. It is filed as ADME, cell-based, Hepatocyte.
The nature of data set [34]: Drug metabolism in mouse hepatocytes assessed as dealkylation by measuring M3 metabolite formation. In kind it is ADME, cell-based, Hepatocyte.
A short description of data set [35]: Drug metabolism in mouse hepatocytes assessed as dealkylation and oxygenation by measuring M2 metabolite formation. In kind it is ADME, cell-based, Hepatocyte.

SMILES strings stand for the structures. Values after ≈ are worked out from the molar mass of the structure shown. Active and inactive are the calls of the source.

In general, IC50 refers to the midpoint of a concentration-inhibition curve. High values mean lower potency, low ones higher potency. `NCCOc1cc(Cl)cc(N2CCN(c3cnnc4c(Cl)cccc34)CC2)c1`: in [1], the solubility kinetic at 16 h stood at 38 µM (≈ 15.9 µg/mL). Besides, the IC50 with RD was 4.58 µM; in the data set on HT-1080 it was 3.89 µM; in the data set on MCF7, greater than 20 µM; with GCT, 3.55 µM. The microsomal intrinsic clearance in data set [2] is less than 9.6 µL/min/mg. In data set [3], the t1/2 was greater than 145 min. In data set [4], the remaining at 1 h, 100 µM was 78.7%.
Consider `Clc1cccc(N2CCN(c3ccnc4c(Cl)cccc34)CC2)c1`, for which the result on Vimentin (Homo sapiens) [5], at Vimentin (Homo sapiens) [6] and on Vimentin (Homo sapiens) [7] was inactive. Moreover, the IC50 with RD, in the data set with HT-1080, with MCF7 and in the data set on GCT was greater than 20 µM each time.
In the case of `OCCOc1cc(Cl)cc(N2CCN(c3cnnc4c(Cl)cccc34)CC2)c1`, the solubility kinetic at 16 h in data set [1] was 13 µM (≈ 5.45 µg/mL). Moreover, the IC50 in the data set on RD was 0.407 µM; in the data set with HT-1080 it was 0.5 µM; in the data set on MCF7, greater than 20 µM; with GCT, 0.667 µM. Moreover, the microsomal intrinsic clearance in data set [2] stood at 72.5 µL/min/mg. In addition, the t1/2 in [3] worked out at 19.1 min. The remaining at 1 h, 100 µM in [4] came out at 10.5%.
A word on the Tmax: it is the time at which the peak concentration occurs. What is called AUC(0-t) is the area under the concentration-time curve up to a stated or last time point. One may read the half-life as the time needed for the level to fall by half in the phase considered. Read a low half-life as fast loss. A word on the Cmax: it is the peak of the concentration-time curve. For orientation: AUC(0-inf) means total exposure, with the tail of the curve extrapolated. A higher AUC(0-inf) goes with high exposure. Turning to `COc1cc(Cl)cc(N2CCN(c3cnnc4c(Cl)cccc34)CC2)c1`, the outcome on Vimentin (Homo sapiens) [8] (filed as activator), at Vimentin (Homo sapiens) [9] (filed as activator) and at Vimentin (Homo sapiens) [21] (filed as activator) was Active. Also, the time to peak (Tmax) in [10] was 40.2 min; in data set [22] it was 15 min. In addition, the Tlast is 8 h in data set [11] and 18 h in data set [18]. The F in data set [12] was 25%. The AUC(0-t) in data set [13] was found to be 208 ng·h/mL; in data set [23] it was 371 ng·h/mL. The IC50 with RD stood at 0.061 µM; in the data set on HT-1080 it was 0.044 µM; in the data set with MCF7 it was 11.2 µM; with GCT, 0.049 µM. The half-life was 281 min in [14] and 35.4 min in data set [17]. The Cmax in data set [15] amounted to 197 ng/mL; in data set [20] it was 155 ng/mL. Further, the AUC(0-inf) was determined as 534 ng·h/mL in data set [16] and 211 ng·h/mL in data set [19]. Besides, in data set [2], the microsomal intrinsic clearance turned out to be 805.3 µL/min/mg. Also, in [3], the t1/2 worked out at 1.7 min. Also, in data set [4], the remaining at 1 h, 100 µM was found to be 0%.
As for `Clc1cccc(N2CCN(c3cnnc4c(Cl)cccc34)CC2)c1`, the outcome at Vimentin (Homo sapiens) [8], at Vimentin (Homo sapiens) [9] and at Vimentin (Homo sapiens) [21] was inactive. In data set [24], this compound registered an AUC(0-inf) of 339 ng·h/mL. The solubility kinetic at 16 h in data set [1] was less than 1 µM. In addition, the Tmax in data set [25] turned out to be 30 min. Further, the result at Vimentin (Homo sapiens) [5] (filed as activator), on Vimentin (Homo sapiens) [6] (filed as activator) and at Vimentin (Homo sapiens) [7] (filed as activator) was Active. The Drug metabolism entry in [26], in data set [27], in data set [29], in data set [30], in data set [33] and in data set [34] was “Metabolite_Detected” throughout. In data set [35], the Drug metabolism result was “Metabolite_Detected”. The IC50 with RD is 3.1 µM; in the data set on HT-1080, 1.56 µM; with MCF7, greater than 20 µM; in the data set with GCT it was 1.69 µM. Further, the peak level in data set [28] (Cmax) was 110 ng/mL. Further, the microsomal intrinsic clearance in data set [2] stood at 116.1 µL/min/mg. For the same compound, the t1/2 in data set [3] was 11.9 min. In data set [31], this compound registered an exposure AUC(0-t) of 310 ng·h/mL. In addition, in data set [32], the half-life was 274 min. The remaining at 1 h, 100 µM in data set [4] turned out to be 3.2%.
As to `COC(=O)CCOc1cc(Cl)cc(N2CCN(c3cnnc4c(Cl)cccc34)CC2)c1`, the solubility kinetic at 16 h in data set [1] was 82 µM (≈ 37.8 µg/mL). The IC50 in the data set with RD was 1.12 µM; with HT-1080, 0.979 µM; in the data set with MCF7, greater than 20 µM; in the data set on GCT, 1 µM. Also, the microsomal intrinsic clearance in data set [2] is 39 µL/min/mg. In addition, in data set [3], the t1/2 turned out to be 35.5 min. Moreover, in data set [4], the remaining at 1 h, 100 µM was found to be 28.9%.

The values above are taken from ChEMBL document CHEMBL5352396, “Synthesis and biological evaluation of novel FiVe1 derivatives as potent and selective agents for the treatment of mesenchymal cancers” (Eur J Med Chem, 2022).
